According to US20230192878A1, “METHODS, THERAPIES AND USES FOR TREATING CANCER” (PFIZER INC., priority 2020, published 2023):

How the values were obtained:
[1] = tested on: H929; experiment: Cell surface BCMA expression after GSI, time course and washout; format: cell-based
Procedure: (§1) Multiple myeloma cells (MM.1S, OPM2, H929, Molp8, RPMI8226) were seeded in a 6-well plate at 800,000 cells/2 ml/well with GSI diluted at 1 μM in RPMI medium (with 0.1% DMSO). Cells were collected to evaluate cell surface BCMA expression at baseline, and then at 3 hours, 6 hours and 24 hours after addition of the GSI. After 24 hours of incubation with the GSI, cells were washed twice in PBS and re-plated in fresh 6-well plates. […] At the indicated time points, samples were stained with a ZombieNIR Viability dye (Biolegend) for 20 minutes at room temperature at 1 in 500 dilution in PBS, washed with PBS+2% FBS and further stained with anti-BCMA PE-labelled antibody diluted in PBS+2% FBS for 30 minutes at 4° C. Samples were acquired on BD Flow Cytometer and analyzed using FlowJo software. Dead cells were removed from the analysis by gating on ZombieNIR negative population. BCMA MFI was plotted as a histogram.

[2] = tested on: RPMI8226; experiment: as above; format: cell-based
Procedure: as §1

[3] = tested on: advanced multiple myeloma; experiment: First in human Phase 1 clinical study: patient response per IMWG; format: in vivo
Text: This Example illustrates an ongoing Phase 1 open-label, multicenter clinical study of PF-06863135 (BCMAxCD3 bispecific) as monotherapy and in combination with sasanlimab, lenalidomide or pomalidomide, in adult patients with advanced multiple myeloma who have relapsed from or are refractory to standard therapy. The study has been registered on ClinicalTrials.gov with identifier NCT03269136 and was first posted August 2017. Study results for Part 1 of the trial and additional arms for the study are described in this Example.
Part 1 of the Study is the […] single agent dose escalation arm at the dose levels of 0.1, 0.3, 1, 3, 10, 30, and 50 μg/kg Q1W by intravenous (IV) administration, and at the dose levels of 80, 130, 215, 360, 600 and 1000 μg/kg Q1W by subcutaneous (SC) administration. Upon reaching maximum tolerated dose (MTD)/maximum administered dose (MAD), patients can be treated at a dose level selected from the foregoing dose levels described in this paragraph, and below the MTD/MAD fora Q2W administration, both IV and SC, to further support the recommended phase 2 dose (RP2D) decision. For the study, dose limiting toxicity observation period is set at 21 days for Q1W dosing and 28 days for Q2W dosing. The treatment cycle, aka cycle, for Q1W dosing would be 3 weeks, and for Q2W dosing would be four weeks.
Clinical Outcome of Part 1 of the Study. As of 15 Apr. 2020, a total of 23 patients were enrolled in Part 1 of the study and had been treated with PF-06863135 administered intravenously (IV) at 0.1 (N=2), 0.3 (N=3), 1 (N=2), 3 (N=3), 10 (N=2), 30 (N=5), and 50 (N=6) μg/kg. As of Aug. 21, 2020, a total of 30 patients were enrolled in Part 1 of the study and had been treated with PF-06863135 administered subcutaneously (SC) at 80 (N=6), 130 (N=4), 215 (N=4), 360 (N=4), 600 (N=6) and 1000 (N=6) μg/kg. Safety and efficacy data were available for in 23 IV and 30 SC treated patients per IMWG (International Myeloma Working Group) criteria.
Part 1.1 of the Study is an alternative maintenance dose escalation arm for single agent PF-06863135. If excessive toxicity occurs or the maximum tolerated dose (MTD)/maximum administered dose (MAD) is reached at a dose level that is earlier than desired in Part 1 of the study described above, a priming dose will be administered one week prior to the day 1 cycle 1 administration of the dose (maintenance dose) at this dose level and for all subsequent dose levels in the dose escalation that may be initiated for Part 1.1. The priming dosing will be at a lower dose level than the maintenance dose.

[4] = Preliminary pharmacokinetic (PK) analysis, Phase 1 study; format: in vivo, human
Procedure: Therefore, a fixed dose is suitable for the dosing of PF-06863135. Based on the encouraging efficacy data and safety data obtained from Part I of Study, a promising RP2D for Part 2A of the study could be a fixed dose equivalent of 1000 μg/kg (i.e., 76 mg) of PF-06863135 either in Q1W or Q2W. A fixed dose equivalent of 600 μg/kg (ie, 44 mg) will likely be used as a priming dose on cycle zero day 1. The initial dose of 44 mg serves as a priming dose and is designed to mitigate the CRS symptoms of the later 76 mg dose. […] Subsequently, the 44 mg (priming) and 76 mg (maintenance) were selected as the single agent RP2D dose. Patient will be administered a single priming dose of 44 mg SC of PF06863135, followed by maintenance dosing of 76 mg Q1W SC or 76 mg Q2W starting 7 days after the single priming dose.

[5] = 600 μg/kg priming, 1000 μg/kg Q1W SC, N = 7
[6] = 600 μg/kg priming, 1000 μg/kg Q2W SC, N = 13

CCC[C@H](N[C@H]1CCc2cc(F)cc(F)c2C1)C(=O)Nc1cn(C(C)(C)CNCC(C)(C)C)cn1 [GSI, nirogacestat]
BCMA (-PE) MFI ([1]; H929, GSI 1 μM for 24 h, 3 h post wash): 15422 | BCMA (-PE) MFI ([1]; H929, GSI 1 μM for 24 h, 5 h post wash): 9313 | BCMA (-PE) MFI ([1]; H929, GSI 1 μM for 24 h, 24 h post wash): 8423 | BCMA (-PE) MFI ([1]; H929, GSI 1 μM, 3 h after GSI): 3653 | BCMA (-PE) MFI ([1]; H929, GSI 1 μM, 6 h after GSI): 3423 | BCMA (-PE) MFI ([1]; H929, GSI 1 μM, 24 h after GSI): 8245 | BCMA (-PE) MFI ([2]; RPMI8226, GSI 1 μM for 24 h, 3 h post wash): 6557 | BCMA (-PE) MFI ([2]; RPMI8226, GSI 1 μM for 24 h, 5 h post wash): 4437 | BCMA (-PE) MFI ([2]; RPMI8226, GSI 1 μM for 24 h, 24 h post wash): 2688 | BCMA (-PE) MFI ([2]; RPMI8226, GSI 1 μM, 3 h after GSI): 4437 | BCMA (-PE) MFI ([2]; RPMI8226, GSI 1 μM, 6 h after GSI): 4527 | BCMA (-PE) MFI ([2]; RPMI8226, GSI 1 μM, 24 h after GSI): 6340

PF-06863135: heterodimeric humanized full-length bispecific antibody with one BCMA binding arm and one CD3 binding arm
Patients who achieved a complete response ([3]; 50 μg/kg IV): 1 patient | Patient Response: PR (patients) ([3]; 215 μg/kg SC, N = 4): 1 | Patient Response: SD (patients) ([3]; 215 μg/kg SC, N = 4): 1 | Patient Response: sCR (patients) ([3]; 215 μg/kg SC, N = 4): 2 | Patient Response: PD (patients) ([3]; 360 μg/kg SC, N = 4): 1 | Patient Response: VGPR (patients) ([3]; 360 μg/kg SC, N = 4): 2 | Patient Response: sCR (patients) ([3]; 360 μg/kg SC, N = 4): 1 | Patient Response: PD (patients) ([3]; 600 μg/kg SC, N = 6): 1 | Patient Response: SD (patients) ([3]; 600 μg/kg SC, N = 6): 1 | Patient Response: VGPR (patients) ([3]; 600 μg/kg SC, N = 6): 2 | Patient Response: sCR (patients) ([3]; 600 μg/kg SC, N = 6): 2 | Patient Response: CR (patients) [3, 5]: 2 | Patient Response: PR (patients) [3, 5]: 1 | Patient Response: VGPR (patients) [3, 5]: 1 | Patient Response: PD (patients) [3, 6]: 3 | Patient Response: PR (patients) [3, 6]: 3 | Patient Response: SD (patients) [3, 6]: 1 | Patient Response: VGPR (patients) [3, 6]: 4 | Patient Response: CR (patients) ([3]; 1000 μg/kg SC, N = 6): 1 | Patient Response: PD (patients) ([3]; 1000 μg/kg SC, N = 6): 1 | Patient Response: PR (patients) ([3]; 1000 μg/kg SC, N = 6): 1 | Patient Response: VGPR (patients) ([3]; 1000 μg/kg SC, N = 6): 3 | Subjects who achieved best response of stable disease ([3]; IV cohorts (0.3-50 μg/kg)): Ten | Patients who achieved a minimal response ([3]; IV cohorts, at 3 μg/kg and 50 μg/kg IV): 2 patients | Clinical efficacy ([3]; highest dose levels of 600 and 1000 μg/kg SC): clinical efficacy was seen in most patients | Effect of body weight on PF-06863135 exposure [4]: not a clinically relevant factor
